The text below walks through data of ChEMBL document CHEMBL5625244, “Synthesis of cannabidiol-based compounds as ACE2 inhibitors with potential application in the treatment of COVID-19” (Eur J Med Chem, 2023).

pIC50: −log10 of the molar value. Activity calls are given as the source filed them. The rule behind the calls is not given here. Bounds are passed on as bounds.

The target in data set [1] is T1, Angiotensin-converting enzyme 2 (Homo sapiens, UniProt Q9BYF1). Description: Inhibition of human ACE2 using Mca-APK(Dnp) as substrate incubated for 30 mins by fluorometer analysis.
Target sequence in this assay (Q9BYF1 whole entry): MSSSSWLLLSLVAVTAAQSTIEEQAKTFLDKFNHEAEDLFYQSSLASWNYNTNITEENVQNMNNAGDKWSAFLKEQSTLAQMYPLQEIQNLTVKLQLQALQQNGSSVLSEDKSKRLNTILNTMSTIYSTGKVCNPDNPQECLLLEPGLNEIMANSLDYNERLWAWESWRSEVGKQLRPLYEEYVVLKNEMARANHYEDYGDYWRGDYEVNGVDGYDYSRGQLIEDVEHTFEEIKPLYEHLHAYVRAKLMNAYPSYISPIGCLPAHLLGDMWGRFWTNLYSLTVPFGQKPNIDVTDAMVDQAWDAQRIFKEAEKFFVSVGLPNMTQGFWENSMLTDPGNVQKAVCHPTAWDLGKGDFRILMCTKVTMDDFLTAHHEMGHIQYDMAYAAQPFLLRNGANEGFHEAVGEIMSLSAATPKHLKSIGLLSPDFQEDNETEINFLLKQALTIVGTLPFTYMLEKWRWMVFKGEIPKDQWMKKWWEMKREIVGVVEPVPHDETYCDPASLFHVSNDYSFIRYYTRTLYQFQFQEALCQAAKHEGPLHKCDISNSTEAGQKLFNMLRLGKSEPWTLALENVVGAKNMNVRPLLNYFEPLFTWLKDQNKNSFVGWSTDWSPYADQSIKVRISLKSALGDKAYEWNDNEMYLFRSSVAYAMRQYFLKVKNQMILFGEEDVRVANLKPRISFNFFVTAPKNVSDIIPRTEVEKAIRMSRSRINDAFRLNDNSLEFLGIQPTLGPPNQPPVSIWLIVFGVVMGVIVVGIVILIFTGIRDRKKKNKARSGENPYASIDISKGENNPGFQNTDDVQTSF
The target in data set [2] is T1, Angiotensin-converting enzyme 2. Description: Inhibition of human ACE2 using Mca-APK(Dnp) as substrate at 10 nM incubated for 30 mins by fluorometer analysis.
Target sequence in this assay (Q9BYF1 18-805 limits assumed): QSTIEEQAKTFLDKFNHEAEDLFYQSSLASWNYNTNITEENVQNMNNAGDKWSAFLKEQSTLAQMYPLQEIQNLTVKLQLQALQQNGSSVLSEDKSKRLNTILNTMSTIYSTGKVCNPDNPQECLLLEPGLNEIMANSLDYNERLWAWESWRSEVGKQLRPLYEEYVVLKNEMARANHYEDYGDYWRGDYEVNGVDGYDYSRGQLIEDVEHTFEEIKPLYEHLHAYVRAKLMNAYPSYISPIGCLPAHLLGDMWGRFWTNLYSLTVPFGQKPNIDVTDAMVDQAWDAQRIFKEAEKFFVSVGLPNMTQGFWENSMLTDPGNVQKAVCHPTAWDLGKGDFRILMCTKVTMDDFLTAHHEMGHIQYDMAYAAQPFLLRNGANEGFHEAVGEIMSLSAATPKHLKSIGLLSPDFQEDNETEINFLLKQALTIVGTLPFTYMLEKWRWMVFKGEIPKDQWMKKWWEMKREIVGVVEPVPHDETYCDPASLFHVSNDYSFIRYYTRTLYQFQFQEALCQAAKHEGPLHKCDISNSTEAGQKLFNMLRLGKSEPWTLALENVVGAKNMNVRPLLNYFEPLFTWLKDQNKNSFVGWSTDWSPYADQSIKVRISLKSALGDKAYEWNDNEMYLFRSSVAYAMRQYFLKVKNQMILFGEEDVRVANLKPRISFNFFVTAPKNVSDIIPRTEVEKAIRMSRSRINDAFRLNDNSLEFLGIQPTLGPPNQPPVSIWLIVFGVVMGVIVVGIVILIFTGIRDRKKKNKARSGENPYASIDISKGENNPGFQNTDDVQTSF
Data set [3] can be described thus: Cytotoxicity against African green monkey Vero cells assessed as reduction in cell viability upto 100 uM incubated for 48 hrs by Alamar blue assay. Type of data set: toxicity, cell-based. To be noted: chlorocebus sabaeus. Background: Resazurin is reduced to fluorescent resorufin, in cell work by metabolically active cells.
The test system of data set [4] is SARS-CoV-2. Description: Antiviral activity against SARS-CoV-2 Wuhan infected in african green monkey Vero cells pre-infected for 1 hr followed by compound addition and measured after 48 hrs by RT-qPCR analysis. The format is functional, organism-based. Particulars: Severe acute respiratory syndrome coronavirus 2, Wuhan. Background: Real-time PCR tracks product formation cycle by cycle.

One may read the pIC50 as the negative decadic logarithm of the IC50, by convention in mol/L. Compound `CCCCCc1cc(O)c(C2C=C(C)CC(C)(C)C2)c(O)c1` (stereo unspecified) showed a pIC50 in data set [1] of 5.40.

Compound `CCCCCc1cc(O)cc2c1C1CC(C)(C)CC(C)(C1)O2` (stereo unspecified) showed a pIC50 in data set [1] of 8.00. Moreover, the inhibition entry in data set [2] was “Active”.

Consider `C=C(C)[C@@H]1CCC(C)=C[C@H]1c1c(O)cc(CCCCC)cc1O` [CANNABIDIOL], for which, in data set [3], the Activity entry is “Non-Toxic”. Also, the negative logarithm of the IC50 (pIC50) was 4.14 in data set [4] and under 4.52 in data set [1].

`CCCCCc1cc(OC(C)=O)c([C@@H]2C=C(C)CC[C@H]2[C@@H](C)CC=O)c(OC(C)=O)c1` had a negative-log IC50 (pIC50) in data set [1] of 7.40.

As to `CCCCCc1cc(O)c([C@@H]2C=C(C)CC[C@H]2[C@@H](C)CCN2CCC(C)CC2)c(O)c1`, in data set [3], the Activity result is “Non-Toxic”. In addition, the results for the pIC50 in data set [4] and in data set [1] were 5.19 and under 4.52, respectively.

Take `C=C(C)[C@@H]1CCC(C)=C[C@H]1c1c(OCC(=O)OCC)cc(CCCCC)cc1OCC(=O)OCC`: the negative-log IC50 (pIC50) in data set [1] was 6.43.

On to `C=C(C)[C@@H]1CC=C(C)C(c2c(O)cc(CCCCC)cc2O)C1` (stereo partly specified), for which the Activity entry in data set [3] was “Non-Toxic”. The compound also had a pIC50 in data set [4] of 5.20.

In data set [1], `CC(=O)NCC(=O)N[C@@H](CC(=O)O)C(=O)N[C@@H](Cc1ccc(O)cc1)C(=O)N[C@@H](CO)C(=O)N[C@@H](Cc1cnc[nH]1)C(=O)N[C@H]1CSSC[C@@H](C(=O)N[C@H](C(=O)N[C@@H](Cc2ccc(O)cc2)C(=O)N2CCC[C@H]2C(=O)N[C@@H](CC(=O)O)C(=O)N2CCC[C@H]2C(=O)N[C@@H](CCC(=O)O)C(=O)NCC(=O)NCC(=O)NCC(N)=O)[C@@H](C)O)NC(=O)[C@H](CCCCN)NC(=O)[C@H](Cc2c[nH]c3ccccc23)NC(=O)[C@H](Cc2c[nH]c3ccccc23)NC(=O)[C@@H]2CCCN2C(=O)[C@H](Cc2ccc(O)cc2)NC(=O)[C@H](Cc2ccc(O)cc2)NC(=O)[C@H](CCCNC(=N)N)NC(=O)[C@H](CC(C)C)NC(=O)[C@@H]2CCCN2C(=O)[C@H](CO)NC1=O` had a pIC50 of 5.08.

Turning to `C=C(C)[C@@H]1CCC(C)=C[C@H]1c1c(OCCCC)cc(CCCCC)cc1OCCCC`, the pIC50 in data set [1] is 6.77.

For `C=C(C)[C@@H]1CCC(C)=C[C@H]1c1c(OCC)cc(CCCCC)cc1OCC`, the Activity entry in data set [3] is listed as “Non-Toxic”. Moreover, the negative logarithm of the IC50 (pIC50) in data set [4] is 5.03; in data set [1] it was 6.74.

As to `CCCCCc1cc(O)c([C@@H]2C=C(C)CC[C@H]2C(C)C)c(O)c1`, the Activity result in data set [3] was “Non-Toxic”. Further, the negative-log IC50 (pIC50) in data set [4] is 5.72; in data set [1], 5.86.
